These results are taken from US20160206592A1, “METHOD FOR TREATING AMYOTROPHIC LATERAL SCLEROSIS BY INHIBITION OF CXCR4/CXCL12 SIGNALING” (RAMOT AT TEL-AVIV UNIVERSITY LTD., priority 2013, published 2016).

Experiment [1] relates to ZO-1, claudin 5, Occludin. The conditions noted are these: female SODG93A mice, 5 mg/kg s.c. twice a week from 50 days old, sacrificed at 110 days old. The protocol: FIGS. 9A-9C show Blood-CNS-Barrier markers levels following AMD3100 treatment. 50 days old female SODG93A mice were s.c injected with 5 mg/kg AMD3100 twice a week. On 110 days old mice were sacrificed and analyzed for B-CNS-B markers using western blot.
Endothelial cells play an important role in B-CNS-B function. B-CNS-B dysfunction is recognized to participate in neurodegenerative disorders. […] TJPs such as ZO-1, occludin and the claudin family exist in cerebral vascular endothelial cells, which are the most crucial factors modulating barrier integrity. […] The expression of TJPs has been reported to contribute to barrier function. ZO-1 and claudin-5 are the most important components for cell barrier integrity. Claudin-5 can greatly reduce dextran permeability and improve transendothelial electrical resistance and plays an essential role in the earliest stage of CNS angiogenesis. ZO-1 serves as a bridge between transmembrane proteins and skeleton proteins, and this interaction is important to the stability and function of endothelial barrier. […] All these three proteins are known to be reduced by 40%-60% in both animal models of ALS and humans, even prior to disease onset (Zhong et al., 2008).

The next experiment deals with transgenic G93A mice. The conditions noted are these: G93A female mice, s.c. once and twice a week.
Experiment [2] deals with NSC-34 cells stably transfected with mutant SOD1. The conditions noted are these: 25 ug AMD3100, astrocytes from newborn SODG93A mice incubated 24 h, compared to other concentrations. The method, then: Primary astrocytes from 3 days old newborn SODG93A mice were incubated AMD3100 for 24 h. Media of treated astrocytes was then added to NSC-34 cells stably transfected with mutant SOD1.

For a further experiment, the system named is activated microglia. The settings on record: female SODG93A mice, 5 mg/kg s.c. twice a week from 50 days old, sacrificed at 110 days old. The protocol: 50 days old female SODG93A mice were s.c injected with 5 mg/kg AMD3100 twice a week. On 110 days old mice were sacrificed and analyzed using western blot for inflammatory markers of activated microglia. FIG. 7A. is cd36 levels. FIG. 7B. is Iba-1 levels.
Loss of upper and lower MNs results in progressive muscle paralysis and ultimately death due to respiratory failure. Although initially thought to derive from the selective loss of MNs, the pathogenic concept of non-cell autonomous disease has come to the fore front for the contribution of glial cells in ALS, in particular microglia. […] Conversely, activated microglia contributes and enhances MN death by secreting neurotoxic factors, and impaired microglial function at the end-stage may instead accelerate disease progression. However, the nature of microglial-neuronal interactions that lead to MN degeneration remains elusive.

Experiment [3] has as its system SOD1-G93A female and male mice.
Method: FIGS. 4A-4C are graphs showing survival (Kaplan-Meier curves; P-value=0.0001) of SOD1-G93A female and male mice subcutaneously treated with either 5 mg/kg AMD3100 or PBS, starting at 50 days old; N=29 (AMD3100), N=16 (PBS).
Setting [4] is: females only, 5 mg/kg twice a week.
[5] abbreviates: males and females together, 5 mg/kg s.c., starting at 50 days old.
The mark [6] stands for this setting: males only, 5 mg/kg twice a week.

Molecules are shown by their SMILES. Where two headings read alike, the source gives them in different places.

From the text for transgenic G93A mice: Six mice received AMD3100 once a week, eight mice received AMD3100 twice a week, and seven mice received PBS once a week.
For this purpose, the present inventors treated G93A female mice subcutaneously with either AMD3100 or PBS, starting at 70 days old. Six mice received AMD3100 once a week, eight mice received AMD3100 twice a week, and seven mice received PBS once a week.

Turning to `c1cc(CN2CCCNCCNCCCNCC2)ccc1CN1CCCNCCNCCCNCC1` [AMD3100, 1,1′-[1,4-Phenylenebis(methylene)]bis-1,4,8,11-tetraazacyclotetradecane], in experiment [1], the Occludin levels entry is listed as “effective in restoring the expression”, the ZO-1 levels result is reported as “effective in restoring the expression” and the “claudin 5 levels” value is “effective in restoring the expression”. The “extension of survival compared with control (PBS) mice” value in the experiment with transgenic G93A mice is given as “about 14 days”. In the experiment with transgenic G93A mice (starting at 70 days old), this compound gave an age at death of about 170 days old. Moreover, the “survival of motor neuron like cells” value in experiment [2] is “increased the survival”. In the experiment with activated microglia, the Iba-1 levels entry is “significant reduction” and the cd36 levels result was “significant reduction”. Besides, in experiment [3] (setting [4]), the mean survival came out at 146 days, the median survival is listed as 144 days and the “survival (versus PBS)” value was 14 days. For the same compound, in experiment [3] (setting [5]), the mean survival was 144 days, the median survival worked out at 143 days and the “survival according to Kaplan-Meier curve (versus PBS)” value is 12 days. Also, in experiment [3] (setting [6]), the mean survival was 141 days, the median survival was 139 days and the “survival (versus PBS)” value stood at 8 days.
